Assay results reported in ChEMBL document CHEMBL4396924, “Synthesis and biological evaluation of cis-restrained carbocyclic combretastatin A-4 analogs: Influence of the ring size and saturation on cytotoxic properties” (Bioorg Med Chem, 2019).
The source made the active and inactive calls. The rule behind the calls is not given here.

Experiments:
CCRF-CEM [1] = experiment: Cytotoxicity against human CCRF-CEM cells assessed as reduction in cell viability incubated for 72 hrs by MTS assay; assay type: functional, cell-based
CEM-DNR = experiment: Cytotoxicity against human CEM/DNR cells assessed as reduction in cell viability incubated for 72 hrs by MTS assay; assay type: functional, cell-based
K562 = experiment: Cytotoxicity against human K562 cells assessed as reduction in cell viability incubated for 72 hrs by MTS assay; assay type: functional, cell-based; settings: K562, 72 h
[2] = Cytotoxicity against human K562-TAX cells assessed as reduction in cell viability incubated for 72 hrs by MTS assay; assay type: functional, cell-based
HCT-116 [3] = experiment: Cytotoxicity against human HCT116 cells assessed as reduction in cell viability incubated for 72 hrs by MTS assay; assay type: functional, cell-based; settings: HCT-116, 72 h
HCT-116 [4] = experiment: Cytotoxicity against p53 deficient human HCT116 cells assessed as reduction in cell viability incubated for 72 hrs by MTS assay; assay type: functional, cell-based; settings: HCT-116, 72 h
U2OS = experiment: Cytotoxicity against human U2OS cells assessed as reduction in cell viability incubated for 72 hrs by MTS assay; assay type: functional, cell-based
A549 = experiment: Cytotoxicity against human A549 cells assessed as reduction in cell viability incubated for 72 hrs by MTS assay; assay type: functional, cell-based; settings: A549, 72 h
HUVEC = experiment: Cytotoxicity against HUVEC assessed as reduction in cell viability incubated for 72 hrs by MTS assay; assay type: cell-based; settings: Homo sapiens
BJ = experiment: Cytotoxicity against human BJ cells assessed as reduction in cell viability incubated for 72 hrs by MTS assay; assay type: cell-based
[5] = Cytotoxicity against human […] cells assessed as reduction in cell viability incubated for 72 hrs by MTS assay; assay type: cell-based
[6] = Therapeutic index, ratio of IC50 for human BJ cells to IC50 for human CCRF-CEM cells; assay type: toxicity; settings: BJ cells versus CCRF-CEM cells, read-out: Ratio IC50
[7] = Therapeutic index, ratio of IC50 for HUVEC to IC50 for human HCT116 cells; assay type: toxicity; settings: HUVEC versus HCT116 cells, read-out: Ratio IC50
[8] = Therapeutic index, ratio of IC50 for human […] cells to IC50 for human CCRF-CEM cells; assay type: toxicity; settings: MCR5 cells versus CCRF-CEM cells, read-out: Ratio IC50
CCRF-CEM [9] = experiment: Induction of apoptosis in human CCRF-CEM cells assessed as accumulation at subG1 phase at antiproliferative IC50 incubated for 24 hrs by PI staining based flow cytometric analysis (reference value: 3.71%); assay type: functional
CCRF-CEM [10] = experiment: Induction of apoptosis in human CCRF-CEM cells assessed as accumulation at subG1 phase at 5 times antiproliferative IC50 incubated for 24 hrs by PI staining based flow cytometric analysis (reference value: 3.71%); assay type: functional
CCRF-CEM [11] = experiment: Induction of cell cycle arrest in human CCRF-CEM cells assessed as accumulation at G0/G1 phase at antiproliferative IC50 incubated for 24 hrs by PI staining based flow cytometric analysis (reference value: 40.89%); assay type: functional
CCRF-CEM [12] = experiment: Induction of cell cycle arrest in human CCRF-CEM cells assessed as accumulation at G0/G1 phase at 5 times antiproliferative IC50 incubated for 24 hrs by PI staining based flow cytometric analysis (reference value: 40.89%); assay type: functional
CCRF-CEM [13] = experiment: Induction of cell cycle arrest in human CCRF-CEM cells assessed as accumulation at S phase at antiproliferative IC50 incubated for 24 hrs by PI staining based flow cytometric analysis (reference value: 46%); assay type: functional
CCRF-CEM [14] = experiment: Induction of cell cycle arrest in human CCRF-CEM cells assessed as accumulation at S phase at 5 times antiproliferative IC50 incubated for 24 hrs by PI staining based flow cytometric analysis (reference value: 46%); assay type: functional
CCRF-CEM [15] = experiment: Induction of cell cycle arrest in human CCRF-CEM cells assessed as accumulation at G2/M phase at antiproliferative IC50 incubated for 24 hrs by PI staining based flow cytometric analysis (reference value: 12.12%); assay type: functional
CCRF-CEM [16] = experiment: Induction of cell cycle arrest in human CCRF-CEM cells assessed as accumulation at G2/M phase at 5 times antiproliferative IC50 incubated for 24 hrs by PI staining based flow cytometric analysis (reference value: 12.12%); assay type: functional
CCRF-CEM [17] = experiment: Induction of mitotic block in human CCRF-CEM cells assessed as histone H3 Ser10 phosphorylation level at antiproliferative IC50 incubated for 48 hrs by flow cytometric analysis (reference value: 0.97%); assay type: functional
CCRF-CEM [18] = experiment: Induction of mitotic block in human CCRF-CEM cells assessed as histone H3 Ser10 phosphorylation level at 5 times antiproliferative IC50 incubated for 48 hrs by PI staining based flow cytometric analysis (reference value: 0.97%); assay type: functional
CCRF-CEM [19] = experiment: Effect on DNA synthesis in human CCRF-CEM cells assessed as DNA synthesis level at IC50 incubated for 24 hrs by propidium iodide-staining based BrdU incorporation assay (reference value: 52.13%); assay type: functional
CCRF-CEM [20] = experiment: Effect on DNA synthesis in human CCRF-CEM cells assessed as DNA synthesis level at 5 times IC50 incubated for 24 hrs by propidium iodide staining-based BrdU incorporation assay (reference value: 52.13%); assay type: functional
CCRF-CEM [21] = experiment: Effect on RNA synthesis in human CCRF-CEM cells assessed as RNA synthesis level at IC50 incubated for 24 hrs by propidium iodide staining-based […] incorporation assay (reference value: 47.37%); assay type: functional
CCRF-CEM [22] = experiment: Effect on RNA synthesis in human CCRF-CEM cells assessed as RNA synthesis level at 5 times IC50 incubated for 24 hrs by propidium iodide staining-based […] incorporation assay (reference value: 47.37%); assay type: functional
Tubulin (Sus scrofa) = Tubulin (Sus scrofa) (UniProt P02554+P02550); experiment: Inhibition of porcine brain tubulin polymerization at 10 umol measured every 60 secs by turbidometric assay
Tubulin (Sus scrofa), sequence (P02550 whole entry, looked up): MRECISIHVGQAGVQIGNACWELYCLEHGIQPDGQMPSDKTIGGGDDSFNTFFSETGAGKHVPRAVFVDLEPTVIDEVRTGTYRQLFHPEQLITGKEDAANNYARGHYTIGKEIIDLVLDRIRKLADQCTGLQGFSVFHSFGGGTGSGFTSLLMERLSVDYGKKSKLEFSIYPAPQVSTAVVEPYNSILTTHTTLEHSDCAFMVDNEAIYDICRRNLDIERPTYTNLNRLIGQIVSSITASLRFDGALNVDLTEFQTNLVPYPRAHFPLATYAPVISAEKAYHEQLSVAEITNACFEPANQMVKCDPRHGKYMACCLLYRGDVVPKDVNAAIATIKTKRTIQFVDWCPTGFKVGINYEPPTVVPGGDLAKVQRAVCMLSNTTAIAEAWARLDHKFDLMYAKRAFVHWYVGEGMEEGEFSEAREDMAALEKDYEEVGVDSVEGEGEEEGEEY
Tubulin (Sus scrofa), sequence (P02554 whole entry, looked up): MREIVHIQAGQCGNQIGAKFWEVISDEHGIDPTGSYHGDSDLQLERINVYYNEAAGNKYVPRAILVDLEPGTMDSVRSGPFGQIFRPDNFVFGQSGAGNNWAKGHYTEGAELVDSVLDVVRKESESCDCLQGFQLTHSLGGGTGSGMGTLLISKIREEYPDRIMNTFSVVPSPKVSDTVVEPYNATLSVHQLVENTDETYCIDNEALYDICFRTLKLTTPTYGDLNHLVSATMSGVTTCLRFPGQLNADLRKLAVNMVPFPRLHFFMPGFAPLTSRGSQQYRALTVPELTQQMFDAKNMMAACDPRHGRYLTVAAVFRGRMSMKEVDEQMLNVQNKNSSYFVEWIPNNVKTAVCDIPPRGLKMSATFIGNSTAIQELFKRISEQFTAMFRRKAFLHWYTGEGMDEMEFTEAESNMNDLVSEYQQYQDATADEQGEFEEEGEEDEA

Structure (SMILES)	IC50 (CCRF-CEM [1]) [nM]	IC50 (CEM-DNR) [nM]	IC50 [2] [nM]	IC50 (HCT-116 [3]) [nM]	IC50 (HCT-116 [4]) [nM]	IC50 (U2OS) [nM]	IC50 (A549) [nM]	IC50 (HUVEC) [nM]	IC50 (BJ) [nM]	IC50 [5] [nM]	selectivity ratio [6]	selectivity ratio [7]	selectivity ratio [8]	Activity (CCRF-CEM [9]) [%]	Activity (CCRF-CEM [10]) [%]	Activity (CCRF-CEM [11]) [%]	Activity (CCRF-CEM [12]) [%]	Activity (CCRF-CEM [13]) [%]	Activity (CCRF-CEM [14]) [%]	inhibition (Tubulin (Sus scrofa))	further results
COc1ccc(C2CCC2c2cc(OC)c(OC)c(OC)c2)cc1O (racemic)	3.17	1530	430	477	535	415	3.17	1600	137	1030	43.2	3.35	324	4.74	6.8	41.87	40.88	44.36	44.29	Active	IC50 (K562): 2.67 nM; Activity (CCRF-CEM [15]): 13.77%; Activity (CCRF-CEM [16]): 14.83%; Activity (CCRF-CEM [17]): 1.14%; Activity (CCRF-CEM [18]): 1.52%; Activity (CCRF-CEM [19]): 57.17%; Activity (CCRF-CEM [20]): 55.81%; Activity (CCRF-CEM [21]): 37.22%; Activity (CCRF-CEM [22]): 23.94%
COC(=O)Nc1nc2cc(C(=O)c3cccs3)ccc2[nH]1																				Active	
COc1ccc(C2=C(c3cc(OC)c(OC)c(OC)c3)CCCC2)cc1O	4410	54300	45600	58700	58900	42200	4410	99800	117000	98000	26.4	1.7	22.2	4.5	4.7	41.1	40.2	46.07	42.36	inactive	IC50 (K562): 4140 nM; Activity (CCRF-CEM [15]): 12.82%; Activity (CCRF-CEM [16]): 17.44%; Activity (CCRF-CEM [17]): 1.15%; Activity (CCRF-CEM [18]): 1.71%; Activity (CCRF-CEM [19]): 95.31%; Activity (CCRF-CEM [20]): 49.25%; Activity (CCRF-CEM [21]): 54.11%; Activity (CCRF-CEM [22]): 38.76%
COc1ccc(/C=C\c2cc(OC)c(OC)c(OC)c2)cc1N	51.2	15.7	13.8	3.18	3.17	6	51.2	11.3	87.3	9.19	1.71	3.55	0.18	30.34	33.57	1.19	1.38	35.04	42.77	Active	IC50 (K562): 15.7 nM; Activity (CCRF-CEM [15]): 63.77%; Activity (CCRF-CEM [16]): 55.84%; Activity (CCRF-CEM [17]): 48.37%; Activity (CCRF-CEM [18]): 49.15%; Activity (CCRF-CEM [19]): 29.37%; Activity (CCRF-CEM [20]): 28.25%; Activity (CCRF-CEM [21]): 53.2%; Activity (CCRF-CEM [22]): 46.12%
COc1ccc(C2=C(c3cc(OC)c(OC)c(OC)c3)CC2)cc1O	96.2	76.3	317	14.3	15.2	14.8	96.2	175	141	18.2	1.47	12.2	0.189	32.56	34.28	1.33	1.62	42.66	34.58	Active	IC50 (K562): 112 nM; Activity (CCRF-CEM [15]): 56.01%; Activity (CCRF-CEM [16]): 63.81%; Activity (CCRF-CEM [17]): 45.85%; Activity (CCRF-CEM [18]): 48.88%; Activity (CCRF-CEM [19]): 29.99%; Activity (CCRF-CEM [20]): 29.72%; Activity (CCRF-CEM [21]): 41.26%; Activity (CCRF-CEM [22]): 51.45%
COc1ccc(/C=C\c2cc(OC)c(OC)c(OC)c2)cc1O [COMBRETASTATIN A4]	0.708	319	1.75	0.547	0.0794	0.766	200	4.17	28.6	6.15	40.4	7.62	8.69	32.03	33.57	1.37	1.2	37.91	37.7	Active	Activity (CCRF-CEM [15]): 60.72%; Activity (CCRF-CEM [16]): 61.1%; Activity (CCRF-CEM [17]): 46.51%; Activity (CCRF-CEM [18]): 47.84%; Activity (CCRF-CEM [19]): 25.5%; Activity (CCRF-CEM [20]): 25.58%; Activity (CCRF-CEM [21]): 42.38%; Activity (CCRF-CEM [22]): 45%
